Values joined by “and” are separate entries in the source; they are usually repeats but may differ in a detail not shown here. Equal entries are not always repeated. Toxic doses and inconclusive results are not listed.

In this experiment the test system is CD2F1 mice, L1210 leukemia ip, survival T/C. Briefly: NCI In Vivo Anticancer Drug Screen. Data for tumor model L1210 Leukemia (intraperitoneal) in CD2F1 (CDF1) mice. To be noted: endpoint: mean survival time, higher = longer survival. Put shortly: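 Implant tumor; dose compound or vehicle; measure endpoint in both groups; report treated divided by control.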

Setting [1] is: dose: 25.0 mg/kg/injection, schedule: Q04DX003 (ip), vehicle: saline with Tween-80.
Where [2] appears, read: dose: 100.0 mg/kg/injection, schedule: Q04DX003 (ip), vehicle: saline with Tween-80.
Setting [3] is: dose: 200.0 mg/kg/injection, schedule: Q04DX003 (ip), vehicle: saline with Tween-80.
Where [4] appears, read: dose: 400.0 mg/kg/injection, schedule: Q04DX003 (ip), vehicle: saline with Tween-80.
The mark [5] stands for this setting: dose: 100.0 mg/kg/injection, schedule: Q01DX009 (ip), vehicle: saline.
Setting [6] is: dose: 25.0 mg/kg/injection, schedule: Q01DX009 (ip), vehicle: saline with Tween-80.
[7] abbreviates: dose: 50.0 mg/kg/injection, schedule: Q01DX009 (ip), vehicle: saline with Tween-80.
Where [8] appears, read: dose: 100.0 mg/kg/injection, schedule: Q01DX009 (ip), vehicle: saline with Tween-80.
Setting [9] is: dose: 200.0 mg/kg/injection, schedule: Q01DX009 (ip), vehicle: saline with Tween-80.

Regarding `CC1=C(N=[N+]=[N-])C(=O)c2ccccc2C1=O`, the T/C (dose: 100.0 mg/kg/injection, schedule: Q04DX002 (ip), vehicle: saline with Tween-80) was 91 % of control and the T/C (dose: 200.0 mg/kg/injection, schedule: Q04DX002 (ip), vehicle: saline with Tween-80) was 100 % of control.
For the compound `CC([NH-])C([NH-])O.[Br][Pt+2][Br]` (centres undefined), under setting [1], the T/C was 169 % of control.
Turning to `CC1CN=C(c2ccc(Br)cc2)O1` (centres undefined), the T/C (dose: 100.0 mg/kg/injection, schedule: Q04DX003 (ip), vehicle: saline) is 103 % of control; the T/C (dose: 200.0 mg/kg/injection, schedule: Q04DX003 (ip), vehicle: saline) was 96 % of control; the T/C (dose: 400.0 mg/kg/injection, schedule: Q04DX003 (ip), vehicle: saline) was 103 % of control.
On to `CN(C)c1ccc(/C=C2\C=Nc3ccccc32)cc1`, for which the T/C by setting is: under setting [1], 87 % of control; under setting [2], 87 % of control.
Consider `CN1CCC(c2ccccc2)(c2ccccc2)OC1c1ccccc1` (centres undefined), for which the T/C is, setting by setting: under setting [2], 101 % of control; under setting [3], 100 % of control; under setting [4], 94 % of control.
With `COC(=O)CC(C)Cc1ccc(OC)c(OC)c1` (centres undefined), the T/C reads like this: under setting [5], 97 % of control; under setting [2], 97 % of control; (dose: 200.0 mg/kg/injection, schedule: Q01DX009 (ip), vehicle: saline) 95 % of control; under setting [3], 100 % of control; (dose: 400.0 mg/kg/injection, schedule: Q01DX009 (ip), vehicle: saline) 86 % of control; under setting [4], 96 % of control.
Consider `CC1=CC2=C(C=O)C(=O)[C@](C)(O)[C@@H](O)C2=CO1`, for which the T/C by setting is: (dose: 12.5 mg/kg/injection, schedule: Q01DX009 (ip), vehicle: saline with Tween-80) 114 % of control; under setting [6], 111 % of control; under setting [7], 122 % of control.
In the case of `CC(=O)NC(Cc1cc(I)c(OC(C)=O)c(I)c1)C(=O)O` (centres undefined), the T/C was 93 % of control under setting [7]; 101 % of control (dose: 50.0 mg/kg/injection, schedule: Q04DX003 (ip), vehicle: saline with Tween-80); 93 % of control under setting [8]; 95 % of control under setting [2]; 93 % of control under setting [9]; 97 % of control under setting [3].
In the case of `O=C(CCl)OCc1ccc([N+](=O)[O-])o1`, the T/C under setting [2] was 98 % of control and the T/C under setting [3] was 101 % of control.
On to `Cc1ccc2c(ccc(CC(=S)[S-])[n+]2C)c1`, for which the T/C by setting is: (dose: 6.25 mg/kg/injection, schedule: Q01DX009 (ip), vehicle: Klucel (hydroxypropylcellulose) (HPC)) 97 % of control and 107 % of control; (dose: 12.5 mg/kg/injection, schedule: Q01DX009 (ip), vehicle: Klucel (hydroxypropylcellulose) (HPC)) 94 % of control and 109 % of control; (dose: 25.0 mg/kg/injection, schedule: Q01DX009 (ip), vehicle: Klucel (hydroxypropylcellulose) (HPC)) 93 % of control; (dose: 50.0 mg/kg/injection, schedule: Q01DX009 (ip), vehicle: Klucel (hydroxypropylcellulose) (HPC)) 91 % of control and 95 % of control; (dose: 100.0 mg/kg/injection, schedule: Q01DX009 (ip), vehicle: Klucel (hydroxypropylcellulose) (HPC)) 90 % of control and 96 % of control.
As to `CN(C)C(=O)NCCN(CCNC(=O)N(C)C)C(=O)N(C)C`, the T/C by setting is: under setting [2], 98 % of control; under setting [3], 96 % of control; under setting [4], 94 % of control.
For the compound `c1cc2c3c(c1)nc(CCc1nc4cccc5c4n1CCC5)n3CCC2`, the T/C runs as follows: under setting [6], 100 % of control; under setting [7], 91 % of control; under setting [8], 92 % of control.
Consider `Cc1cccc(OCCOC(=O)Nc2cccc(C(F)(F)F)c2)c1`, for which the T/C (dose: 90.0 mg/kg/injection, schedule: Q01DX009 (ip), vehicle: acetone) is 101 % of control; the T/C (dose: 180.0 mg/kg/injection, schedule: Q01DX009 (ip), vehicle: acetone) is 103 % of control; the T/C (dose: 360.0 mg/kg/injection, schedule: Q01DX009 (ip), vehicle: acetone) is 101 % of control.
With `CC1CC(NC(=S)NC(=O)c2ccccc2Cl)CC(C)(C)C1` (centres undefined), the T/C under setting [8] is 86 % of control; the T/C under setting [9] was 86 % of control; the T/C (dose: 400.0 mg/kg/injection, schedule: Q01DX009 (ip), vehicle: saline with Tween-80) was 86 % of control.
As to `CCOC(=O)C(C(=O)COC)C(=O)OCC`, the T/C runs as follows: (dose: 25.0 mg/kg/injection, schedule: Q01DX009 (ip), vehicle: water) 102 % of control; (dose: 50.0 mg/kg/injection, schedule: Q01DX009 (ip), vehicle: water) 97 % of control; (dose: 100.0 mg/kg/injection, schedule: Q01DX009 (ip), vehicle: water) 97 % of control; (dose: 200.0 mg/kg/injection, schedule: Q01DX009 (ip), vehicle: water) 94 % of control.
In the case of `CC(C)(C)OC(=O)Nc1cccc(O)c1`, the T/C was 100 % of control under setting [2], 96 % of control under setting [3] and 93 % of control under setting [4].
With `OCCN=Cc1ccccc1`, the T/C by setting is: (dose: 25.0 mg/kg/injection, schedule: Q01DX009 (ip), vehicle: saline) 95 % of control; (dose: 50.0 mg/kg/injection, schedule: Q01DX009 (ip), vehicle: saline) 92 % of control; under setting [5], 97 % of control; under setting [2], 106 % of control.
Regarding `C[n+]1ccc(Cc2ccccc2)cc1`, the T/C reads like this: (dose: 12.5 mg/kg/injection, schedule: Q04DX002 (ip), vehicle: saline) 104 % of control; (dose: 25.0 mg/kg/injection, schedule: Q04DX002 (ip), vehicle: saline) 96 % of control; (dose: 50.0 mg/kg/injection, schedule: Q04DX002 (ip), vehicle: saline) 102 % of control.
As for `C=C(Br)CNC(=O)C(O)(c1ccccc1)c1ccccc1`, the T/C (dose: 100.0 mg/kg/injection, schedule: Q01DX001 (ip), vehicle: saline with Tween-80) was 103 % of control; the T/C (dose: 200.0 mg/kg/injection, schedule: Q01DX001 (ip), vehicle: saline with Tween-80) was 87 % of control; the T/C (dose: 400.0 mg/kg/injection, schedule: Q01DX001 (ip), vehicle: saline with Tween-80) is 89 % of control.
Turning to `CCCCCC[C@@H](O)[C@@H]1C2=C(C[C@H]([C@H](O)[C@@H]3CC=CC(=O)O3)CC3=C(C(=O)OC3=O)[C@@H]1O)C(=O)OC2=O`, the T/C (dose: 0.13 mg/kg/injection, schedule: Q01DX001 (ip), vehicle: saline) was 97 % of control; the T/C (dose: 0.25 mg/kg/injection, schedule: Q01DX001 (ip), vehicle: saline) is 95 % of control; the T/C (dose: 0.5 mg/kg/injection, schedule: Q01DX001 (ip), vehicle: saline) is 96 % of control; the T/C (dose: 1.0 mg/kg/injection, schedule: Q01DX001 (ip), vehicle: saline) is 96 % of control; the T/C (dose: 2.0 mg/kg/injection, schedule: Q01DX001 (ip), vehicle: saline) is 96 % of control.
As to `CC(C)CCCC(C)C1CCC2C3CC=C4CC(C(=O)O)CCC4C3CCC12C` (centres undefined), the T/C is, setting by setting: under setting [2], 92 % of control; under setting [3], 88 % of control; under setting [4], 88 % of control.
For `CC1(c2ccccc2)NC(=O)NC1=O` (centres undefined), the T/C (dose: 100.0 mg/kg/injection, schedule: Q01DX009 (ip), vehicle: other) is 98 % of control; the T/C under setting [2] was 94 % of control; the T/C (dose: 200.0 mg/kg/injection, schedule: Q01DX009 (ip), vehicle: other) is 97 % of control; the T/C under setting [3] was 97 % of control; the T/C under setting [4] is 91 % of control.
As for `O=C1C(N2CC2)=C(N2CCCC(O)C2)C(=O)C(N2CC2)=C1N1CCCC(O)C1` (centres undefined), the T/C (dose: 2.0 mg/kg/injection, schedule: Q01DX009 (ip), vehicle: saline) is 162 % of control and 173 % of control.
With `C=CC1(C)CCN=C(CCN2CCCCC2)O1` (centres undefined), the T/C by setting is: (dose: 100.0 mg/kg/injection, schedule: Q01DX001 (ip), vehicle: saline sonified) 97 % of control; (dose: 200.0 mg/kg/injection, schedule: Q01DX001 (ip), vehicle: saline sonified) 100 % of control.
Consider `Nc1nc(N)c2nc(CN(Cc3ccccc3)c3ccc(C(=O)NC(CCC(=O)O)C(=O)O)cc3)cnc2n1` (centres undefined), for which the T/C was 109 % of control (dose: 20.0 mg/kg/injection, schedule: Q01DX009 (ip), vehicle: sodium bicarbonate); 114 % of control (dose: 40.0 mg/kg/injection, schedule: Q01DX009 (ip), vehicle: sodium bicarbonate); 114 % of control (dose: 80.0 mg/kg/injection, schedule: Q01DX009 (ip), vehicle: sodium bicarbonate); 94 % of control (dose: 100.0 mg/kg/injection, schedule: Q01DX001 (ip), vehicle: sodium bicarbonate); 91 % of control (dose: 200.0 mg/kg/injection, schedule: Q01DX001 (ip), vehicle: sodium bicarbonate); 91 % of control (dose: 400.0 mg/kg/injection, schedule: Q01DX001 (ip), vehicle: sodium bicarbonate).

The values above are taken from PubChem BioAssay AID256 (DTP/NCI, 2004).
